# Assays:
# [1] = Buffer compatibility: stability of MNTX in pH 7 phosphate or glycine solution (Tables 9, 10), HPLC Method A; format: physicochemical
# Description: Evaluation of phosphate buffers solution stability. We have also assessed different buffers to determine compatibility and whether various conditions would convey further stability to methylnaltrexone solutions. Table 9 and Table 10 show results (HPLC Method A) of total degradant formation over time in methylnaltrexone solutions prepared in phosphate solution (Table 9), and glycine solution (Table 10). We found at pH 7, glycine provides better stability characteristics to samples than phosphate.
# [2] = Effect of 1 mM sodium tungstate on subcutaneous formulation (Table 16), HPLC Method A; format: physicochemical; for Ring Contraction Degradant: key: BRL=below recordable limit
# [3] = white crystalline powder from Mallinckrodt; cited from earlier work
structure (smiles),measurement,setting,value
"C[N+]1(CC2CC2)CC[C@]23c4c5ccc(O)c4O[C@H]2C(=O)CC[C@@]3(O)[C@H]1C5 (stereo partly shown) [MNTX, methylnaltrexone bromide]",Appearance and Description,"[1]; pH 7, 0.02M Glycine Solution, 40° C., r24 0 time, r26 1 day, r28 2 days, r30 6 days, r32 9 days, r34 14 days, r36 21 days","Clear, colorless"
same,Appearance and Description,"[1]; pH 7, 0.02M Glycine Solution, Room Temperature, r8 0 time, r11 1 day, r13 2 days, r15 6 days, r18 9 days, r20 14 days, r22 21 days","Clear, colorless"
same,Appearance and Description,"[1]; pH 7, 0.02M Phosphate Solution, 40° C., r22 0 time, r24 1 day, r26 2 days, r28 6 days, r30 9 days, r32 14 days, r35 21 days, elapsed 0 time","Clear, colorless"
same,Appearance and Description,"[1]; pH 7, 0.02M Phosphate Solution, 60° C., r38 0 time, r40 1 day, r42 2 days, r44 6 days, r46 9 days, r48 14 days, r50 21 days, elapsed 0 time","Clear, colorless"
same,Appearance and Description,"[1]; pH 7, 0.02M Phosphate Solution, 60° C., r38 0 time, r40 1 day, r42 2 days, r44 6 days, r46 9 days, r48 14 days, r50 21 days, elapsed 9 days","Clear, yellow"
same,Appearance and Description,"[1]; pH 7, 0.02M Phosphate Solution, Room Temperature, r8 0 time, r10 1 day, r12 2 days, r14 6 days, r16 9 days, r18 14 days, r20 21 days","Clear, colorless"
same,7-Dihydroxy MNTX,"[2]; 40° C., 1 hour",BRL
same,O-Methyl MNTX,"[2]; 40° C., 1 hour",0.12
same,Ring Contraction Degradant,"[2]; 40° C., 1 hour",BRL
same,Total,"[2]; 40° C., 1 hour",0.12
same,7-Dihydroxy MNTX,"[2]; 40° C., 2 hours",0.02
same,O-Methyl MNTX,"[2]; 40° C., 2 hours",0.12
same,Ring Contraction Degradant,"[2]; 40° C., 2 hours",BRL
same,Total,"[2]; 40° C., 2 hours",0.14
same,7-Dihydroxy MNTX,"[2]; 40° C., 3 hours",0.02
same,O-Methyl MNTX,"[2]; 40° C., 3 hours",0.12
same,Ring Contraction Degradant,"[2]; 40° C., 3 hours",BRL
same,Total,"[2]; 40° C., 3 hours",0.14
same,7-Dihydroxy MNTX,"[2]; 40° C., 4 hours",0.02
same,O-Methyl MNTX,"[2]; 40° C., 4 hours",0.12
same,Ring Contraction Degradant,"[2]; 40° C., 4 hours",BRL
same,Total,"[2]; 40° C., 4 hours",0.14
same,7-Dihydroxy MNTX,"[2]; 40° C., 5 hours",0.03
same,O-Methyl MNTX,"[2]; 40° C., 5 hours",0.12
same,Ring Contraction Degradant,"[2]; 40° C., 5 hours",BRL
same,Total,"[2]; 40° C., 5 hours",0.15
same,7-Dihydroxy MNTX,"[2]; 40° C., Initial",BRL
same,O-Methyl MNTX,"[2]; 40° C., Initial",0.12
same,Ring Contraction Degradant,"[2]; 40° C., Initial",BRL
same,Total,"[2]; 40° C., Initial",0.12
same,7-Dihydroxy MNTX,"[2]; Room Temperature, 1 hour",BRL
same,O-Methyl MNTX,"[2]; Room Temperature, 1 hour",0.12
same,Ring Contraction Degradant,"[2]; Room Temperature, 1 hour",BRL
same,Total,"[2]; Room Temperature, 1 hour",0.12
same,7-Dihydroxy MNTX,"[2]; Room Temperature, 2 hours",0.02
same,O-Methyl MNTX,"[2]; Room Temperature, 2 hours",0.12
same,Ring Contraction Degradant,"[2]; Room Temperature, 2 hours",BRL
same,Total,"[2]; Room Temperature, 2 hours",0.14
same,7-Dihydroxy MNTX,"[2]; Room Temperature, 3 hours",0.02
same,O-Methyl MNTX,"[2]; Room Temperature, 3 hours",0.12
same,Ring Contraction Degradant,"[2]; Room Temperature, 3 hours",BRL
same,Total,"[2]; Room Temperature, 3 hours",0.14
same,7-Dihydroxy MNTX,"[2]; Room Temperature, 4 hours",0.02
same,O-Methyl MNTX,"[2]; Room Temperature, 4 hours",0.12
same,Ring Contraction Degradant,"[2]; Room Temperature, 4 hours",BRL
same,Total,"[2]; Room Temperature, 4 hours",0.14
same,7-Dihydroxy MNTX,"[2]; Room Temperature, 5 hours",0.02
same,O-Methyl MNTX,"[2]; Room Temperature, 5 hours",0.12
same,Ring Contraction Degradant,"[2]; Room Temperature, 5 hours",BRL
same,Total,"[2]; Room Temperature, 5 hours",0.14
same,7-Dihydroxy MNTX,"[2]; Room Temperature, Initial",BRL
same,O-Methyl MNTX,"[2]; Room Temperature, Initial",0.12
same,Ring Contraction Degradant,"[2]; Room Temperature, Initial",BRL
same,Total,"[2]; Room Temperature, Initial",0.12
same,solubility in water,[3],freely soluble in water

# Source: patent US12303592B2, “Formulations for parenteral delivery of compounds and uses thereof” (Wyeth, LLC, priority 2006, dated 2025)
